Test results from PMC9889419 (Pharmacological Reports, 2022).
Counter-ions that a name gives are not always drawn.

How the values were obtained:
NK2 = biological target: T1, NK2 (Homo sapiens, UniProt P21452); assay: Radioligand binding; conditions: 100 μM
T1 construct: purchased Eurofins CEREP

5-HT5a = biological target: T2, 5-HT5a (Homo sapiens, UniProt P47898); assay: Radioligand binding; conditions: 100 μM
T2 construct: purchased Eurofins CEREP

CCK2 (CCKB) = biological target: T3, CCK2 (CCKB) (Homo sapiens, UniProt P32239); assay: Radioligand binding; conditions: 100 μM
T3 construct: purchased Eurofins CEREP
T3 sequence (P32239 whole entry): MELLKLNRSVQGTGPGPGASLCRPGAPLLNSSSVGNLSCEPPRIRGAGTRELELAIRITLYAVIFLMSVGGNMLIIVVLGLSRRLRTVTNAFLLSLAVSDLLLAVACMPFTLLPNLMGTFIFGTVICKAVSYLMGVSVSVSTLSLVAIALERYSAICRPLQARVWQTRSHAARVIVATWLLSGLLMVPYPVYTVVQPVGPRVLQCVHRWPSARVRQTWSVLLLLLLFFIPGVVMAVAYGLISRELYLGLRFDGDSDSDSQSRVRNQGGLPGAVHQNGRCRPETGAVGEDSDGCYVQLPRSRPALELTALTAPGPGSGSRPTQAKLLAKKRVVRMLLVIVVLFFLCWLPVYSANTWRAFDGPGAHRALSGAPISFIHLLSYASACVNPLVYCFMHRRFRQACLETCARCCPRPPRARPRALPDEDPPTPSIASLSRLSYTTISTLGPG

NK1 = biological target: T4, NK1 (Homo sapiens, UniProt P25103); assay: Radioligand binding; conditions: 100 μM
T4 construct: purchased Eurofins CEREP
T4 sequence (P25103 whole entry): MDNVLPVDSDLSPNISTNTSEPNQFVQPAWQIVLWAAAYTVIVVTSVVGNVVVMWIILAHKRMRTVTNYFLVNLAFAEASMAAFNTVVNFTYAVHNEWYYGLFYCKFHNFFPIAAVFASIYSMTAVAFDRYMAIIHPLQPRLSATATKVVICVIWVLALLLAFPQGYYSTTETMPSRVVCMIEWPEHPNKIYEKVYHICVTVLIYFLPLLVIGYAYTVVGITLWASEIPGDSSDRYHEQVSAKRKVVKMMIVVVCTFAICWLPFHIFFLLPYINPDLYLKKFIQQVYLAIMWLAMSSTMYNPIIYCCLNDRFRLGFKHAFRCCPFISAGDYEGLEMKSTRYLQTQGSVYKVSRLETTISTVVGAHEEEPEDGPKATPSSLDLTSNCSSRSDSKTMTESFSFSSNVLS

A1 = biological target: T5, A1 (Homo sapiens, UniProt P30542); assay: Radioligand binding; conditions: 100 μM
T5 construct: purchased Eurofins CEREP
T5 sequence (P30542 whole entry): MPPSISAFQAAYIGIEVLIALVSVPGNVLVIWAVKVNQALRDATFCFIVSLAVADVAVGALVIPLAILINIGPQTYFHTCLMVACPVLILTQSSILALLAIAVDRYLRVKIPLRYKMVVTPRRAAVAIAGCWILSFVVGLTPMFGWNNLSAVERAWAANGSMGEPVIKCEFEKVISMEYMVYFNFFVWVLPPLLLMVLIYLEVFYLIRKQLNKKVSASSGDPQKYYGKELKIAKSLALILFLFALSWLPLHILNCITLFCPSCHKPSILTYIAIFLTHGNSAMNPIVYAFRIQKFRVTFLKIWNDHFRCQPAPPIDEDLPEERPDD

ETA = biological target: T6, ETA (Homo sapiens, UniProt P25101); assay: Radioligand binding; conditions: 100 μM
T6 construct: purchased Eurofins CEREP

sst (non-selective) = assay: Radioligand binding; conditions: 100 μM
CCR1 = biological target: T7, CCR1 (Homo sapiens, UniProt P32246); assay: Radioligand binding; conditions: 100 μM
T7 construct: purchased Eurofins CEREP

M2 = biological target: T8, M2 (Homo sapiens, UniProt P08172); assay: Radioligand binding; conditions: 100 μM
T8 construct: purchased Eurofins CEREP
T8 sequence (P08172 whole entry): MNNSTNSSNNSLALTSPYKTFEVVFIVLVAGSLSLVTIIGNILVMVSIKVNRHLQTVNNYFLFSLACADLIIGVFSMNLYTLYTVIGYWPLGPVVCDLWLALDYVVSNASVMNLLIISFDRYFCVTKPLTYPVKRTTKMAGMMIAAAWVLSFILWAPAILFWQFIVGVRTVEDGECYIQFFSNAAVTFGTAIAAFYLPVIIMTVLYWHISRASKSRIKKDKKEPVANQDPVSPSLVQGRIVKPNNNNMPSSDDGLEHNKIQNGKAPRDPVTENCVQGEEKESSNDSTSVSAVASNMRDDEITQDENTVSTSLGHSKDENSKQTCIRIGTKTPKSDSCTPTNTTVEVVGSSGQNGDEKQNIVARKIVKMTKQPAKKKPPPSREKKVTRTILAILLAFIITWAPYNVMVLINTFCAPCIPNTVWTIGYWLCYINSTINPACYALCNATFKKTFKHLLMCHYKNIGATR

AT1 = biological target: T9, AT1 (Homo sapiens, UniProt P30556); assay: Radioligand binding; conditions: 100 μM
T9 construct: purchased Eurofins CEREP

CXCR2 (IL-8B) = biological target: T10, CXCR2 (IL-8B) (Homo sapiens, UniProt P25025); assay: Radioligand binding; conditions: 100 μM
T10 construct: purchased Eurofins CEREP

MC4 = biological target: T11, MC4 (Homo sapiens, UniProt P32245); assay: Radioligand binding; conditions: 100 μM
T11 construct: purchased Eurofins CEREP
T11 sequence (P32245 whole entry): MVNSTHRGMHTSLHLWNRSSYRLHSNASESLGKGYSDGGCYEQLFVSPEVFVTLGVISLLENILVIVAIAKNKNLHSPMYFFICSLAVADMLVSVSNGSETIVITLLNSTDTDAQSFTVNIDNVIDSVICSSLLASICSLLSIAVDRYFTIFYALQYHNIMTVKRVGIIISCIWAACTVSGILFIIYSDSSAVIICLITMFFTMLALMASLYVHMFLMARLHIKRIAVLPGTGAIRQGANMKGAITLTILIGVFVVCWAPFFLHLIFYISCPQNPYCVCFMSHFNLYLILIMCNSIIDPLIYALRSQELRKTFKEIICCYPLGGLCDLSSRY

VPAC1 (VIP1) = biological target: T12, VPAC1 (VIP1) (Homo sapiens, UniProt P32241); assay: Radioligand binding; conditions: 100 μM
T12 construct: purchased Eurofins CEREP

AT2 = biological target: T13, AT2 (Homo sapiens, UniProt P50052); assay: Radioligand binding; conditions: 100 μM
T13 construct: purchased Eurofins CEREP
T13 sequence (P50052 whole entry): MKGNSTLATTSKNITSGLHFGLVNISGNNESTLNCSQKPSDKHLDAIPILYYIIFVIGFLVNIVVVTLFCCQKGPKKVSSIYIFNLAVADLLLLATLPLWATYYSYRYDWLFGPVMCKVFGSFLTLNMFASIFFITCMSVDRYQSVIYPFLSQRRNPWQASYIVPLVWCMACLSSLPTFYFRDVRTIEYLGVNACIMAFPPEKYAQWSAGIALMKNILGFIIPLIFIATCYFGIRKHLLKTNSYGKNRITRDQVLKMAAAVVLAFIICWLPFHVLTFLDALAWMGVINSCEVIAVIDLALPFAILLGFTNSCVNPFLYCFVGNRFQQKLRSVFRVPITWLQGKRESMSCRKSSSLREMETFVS

TNF-α = assay: Radioligand binding; conditions: 100 μM
NOP (ORL1) = biological target: T14, NOP (ORL1) (Homo sapiens, UniProt P41146); assay: Radioligand binding; conditions: 100 μM
T14 construct: purchased Eurofins CEREP

5-HT6 = biological target: T15, 5-HT6 (Homo sapiens, UniProt P50406); assay: Radioligand binding; conditions: 100 μM
T15 construct: purchased Eurofins CEREP
T15 sequence (P50406 whole entry): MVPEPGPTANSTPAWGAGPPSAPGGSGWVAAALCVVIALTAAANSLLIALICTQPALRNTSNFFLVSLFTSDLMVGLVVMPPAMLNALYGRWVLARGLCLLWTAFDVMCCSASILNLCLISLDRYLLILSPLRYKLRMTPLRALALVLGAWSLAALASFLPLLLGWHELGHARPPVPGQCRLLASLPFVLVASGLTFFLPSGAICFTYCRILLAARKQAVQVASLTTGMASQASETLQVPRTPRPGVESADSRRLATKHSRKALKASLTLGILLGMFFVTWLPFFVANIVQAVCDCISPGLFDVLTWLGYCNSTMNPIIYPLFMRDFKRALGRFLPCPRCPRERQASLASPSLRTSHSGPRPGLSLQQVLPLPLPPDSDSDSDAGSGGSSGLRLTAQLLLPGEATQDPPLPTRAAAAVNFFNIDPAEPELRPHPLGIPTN

GAL2 = biological target: T16, GAL2 (Homo sapiens, UniProt O43603); assay: Radioligand binding; conditions: 100 μM
T16 construct: purchased Eurofins CEREP

β2 = biological target: T17, β2 (Homo sapiens, UniProt P07550); assay: Radioligand binding; conditions: 100 μM
T17 construct: purchased Eurofins CEREP
T17 sequence (P07550 whole entry): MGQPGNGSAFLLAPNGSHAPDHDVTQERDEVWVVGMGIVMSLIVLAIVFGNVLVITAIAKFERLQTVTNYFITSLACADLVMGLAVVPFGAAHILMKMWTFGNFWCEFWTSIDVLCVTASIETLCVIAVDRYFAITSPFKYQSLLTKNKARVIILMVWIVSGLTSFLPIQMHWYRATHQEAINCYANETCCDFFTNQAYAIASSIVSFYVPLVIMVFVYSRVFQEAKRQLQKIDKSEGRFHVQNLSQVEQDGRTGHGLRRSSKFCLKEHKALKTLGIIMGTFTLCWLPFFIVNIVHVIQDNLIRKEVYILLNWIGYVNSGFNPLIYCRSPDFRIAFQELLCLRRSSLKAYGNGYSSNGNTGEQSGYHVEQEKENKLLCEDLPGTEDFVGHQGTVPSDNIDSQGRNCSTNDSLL

D1 = biological target: T18, D1 (Homo sapiens, UniProt P21728); assay: Radioligand binding; conditions: 100 μM
T18 construct: purchased Eurofins CEREP

H1 = biological target: T19, H1 (Homo sapiens, UniProt P35367); assay: Radioligand binding; conditions: 100 μM
T19 construct: purchased Eurofins CEREP
T19 sequence (P35367 whole entry): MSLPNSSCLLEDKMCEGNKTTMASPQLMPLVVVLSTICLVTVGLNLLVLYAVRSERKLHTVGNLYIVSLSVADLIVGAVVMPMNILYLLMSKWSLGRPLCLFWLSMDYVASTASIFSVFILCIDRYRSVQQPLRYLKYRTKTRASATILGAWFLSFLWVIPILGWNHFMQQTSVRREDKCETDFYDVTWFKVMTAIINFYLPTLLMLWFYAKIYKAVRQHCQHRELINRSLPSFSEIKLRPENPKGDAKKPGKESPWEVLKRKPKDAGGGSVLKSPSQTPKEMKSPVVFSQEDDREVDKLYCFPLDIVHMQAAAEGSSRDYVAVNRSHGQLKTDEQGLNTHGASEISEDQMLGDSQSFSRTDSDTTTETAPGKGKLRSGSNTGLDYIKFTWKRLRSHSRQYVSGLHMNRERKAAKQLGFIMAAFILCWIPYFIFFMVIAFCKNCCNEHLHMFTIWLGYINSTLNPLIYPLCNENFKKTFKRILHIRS

V1a = biological target: T20, V1a (Homo sapiens, UniProt P37288); assay: Radioligand binding; conditions: 100 μM
T20 construct: purchased Eurofins CEREP

H2 = biological target: T21, H2 (Homo sapiens, UniProt P25021); assay: Radioligand binding; conditions: 100 μM
T21 construct: purchased Eurofins CEREP
T21 sequence (P25021 whole entry): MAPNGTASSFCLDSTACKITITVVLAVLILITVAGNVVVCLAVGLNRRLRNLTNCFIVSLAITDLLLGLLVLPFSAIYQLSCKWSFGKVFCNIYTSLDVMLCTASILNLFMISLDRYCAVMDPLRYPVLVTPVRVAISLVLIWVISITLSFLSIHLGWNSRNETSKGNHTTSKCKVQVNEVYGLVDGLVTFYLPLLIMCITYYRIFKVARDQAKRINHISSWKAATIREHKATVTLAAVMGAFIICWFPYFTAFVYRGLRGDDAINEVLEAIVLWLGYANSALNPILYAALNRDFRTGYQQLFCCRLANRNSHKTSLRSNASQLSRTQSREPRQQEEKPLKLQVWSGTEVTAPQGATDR

5-HT3 = biological target: T22, 5-HT3 (Homo sapiens, UniProt P46098); assay: Radioligand binding; conditions: 100 μM
T22 construct: purchased Eurofins CEREP

Sigma 1 = biological target: T23, Sigma 1 (Homo sapiens, UniProt Q99720); assay: Radioligand binding
T23 construct: purchased Eurofins CEREP
T23 sequence (Q99720 whole entry): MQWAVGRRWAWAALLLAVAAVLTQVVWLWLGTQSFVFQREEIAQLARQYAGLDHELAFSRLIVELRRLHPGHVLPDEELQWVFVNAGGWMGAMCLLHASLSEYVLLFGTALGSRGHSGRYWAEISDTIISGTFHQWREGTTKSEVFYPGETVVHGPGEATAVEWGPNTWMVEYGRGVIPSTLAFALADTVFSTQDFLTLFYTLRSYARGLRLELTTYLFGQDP

MTT assay = assay type: cell-based, murine; conditions: mouse, astrocyte cell line (ATCC CRL-2541); 250 µM; read-out: cell viability compared to control
[1] = Approximate solubility tests; assay type: physicochemical; conditions: pH 9.9 borate buffer
Description: Borate buffer pH = 9.9 was selected as one of standard buffers at this pH range. […] Initially, three organic modifiers were considered: ethanol, dimethyl sulfoxide (DMSO) and 1,4-dioxane. […] Finally, dioxane was selected due to its higher boiling point, which reduced the risk of evaporation during a prolonged experiment. During the experiment, three degradation products were observed (tR = 13 min, tR = 15 min and tR = 17 min).

[2] = Degradation kinetics under basic conditions; assay type: physicochemical; conditions: 70.0 ± 0.5 °C, pH 9.90, 1,4-dioxane 20% v/v
Description: Chromatographic conditions. The liquid chromatography system Merck-Hitachi LaChrom Elite, equipped with a LiChroSpher RP-18 (250 × 4.6 mm; particle size 5 µm) column from Merck was used. Isocratic elution using a mobile phase composed of phosphate buffer pH = 4.36 and acetonitrile (40:60, v/v) at a flow rate of 1 mL min^−1 at 25 °C and single-wavelength UV detection at 260 nm was applied for the analysis. The injection volume was 20 µL.
Kinetic studies. […] After 5 min, first 50 µL sample was taken using a Hamilton syringe. The sample was diluted with 100 µL of pH = 4.36 phosphate buffer and frozen at − 18 °C. The reaction was conducted for 1606 h with samples taken at selected time intervals. After the experiment was finished, the samples have been defrosted and analyzed using the RP-HPLC method described above.

T1 sequence (P21452 whole entry): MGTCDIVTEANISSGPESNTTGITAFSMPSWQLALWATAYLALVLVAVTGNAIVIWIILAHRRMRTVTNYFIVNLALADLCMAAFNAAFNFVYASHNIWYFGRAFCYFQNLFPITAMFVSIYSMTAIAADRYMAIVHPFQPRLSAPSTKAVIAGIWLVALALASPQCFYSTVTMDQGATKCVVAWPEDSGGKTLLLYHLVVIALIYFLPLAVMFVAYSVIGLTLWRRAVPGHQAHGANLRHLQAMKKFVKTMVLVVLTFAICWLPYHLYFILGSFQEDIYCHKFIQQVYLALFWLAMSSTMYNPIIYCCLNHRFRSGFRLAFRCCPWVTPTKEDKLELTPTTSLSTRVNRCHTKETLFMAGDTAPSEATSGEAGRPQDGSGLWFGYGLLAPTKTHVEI

For CCC(CO)NCCOc1c(C)cccc1Cl (stereo not drawn) [Compound 4, R,S-2-((2-(2-chloro-6-methylphenoxy)ethyl)amino)butan-1-ol], the “% of control specific binding” value (NK2) was 88.7%, the “% of control specific binding” value (5-HT5a) was 52.8% and the “% of control specific binding” value (CCK2 (CCKB)) was 107.4%. The “% of control specific binding” value (NK1) was 82.1%, the “% of control specific binding” value (A1) was 124.5% and the “% of control specific binding” value (ETA) was 130.9%. The “% of control specific binding” value (sst (non-selective)) was 75.5%, the “% of control specific binding” value (CCR1) was 100.7% and the “% of control specific binding” value (M2) was 58.4%. For the same compound, the “% of control specific binding” value (AT1) was 131.2%, the “% of control specific binding” value (CXCR2 (IL-8B)) was 112.2% and the “% of control specific binding” value (MC4) was 92.0%. For the same compound, the “% of control specific binding” value (VPAC1 (VIP1)) was 117.9%, the “% of control specific binding” value (AT2) was 108.2% and the “% of control specific binding” value (TNF-α) was 96.5%. The “% of control specific binding” value (NOP (ORL1)) was 95.5%, the “% of control specific binding” value (5-HT6) was 101.6% and the “% of control specific binding” value (GAL2) was 111.9%. For the same compound, the “% of control specific binding” value (β2) was 85.1%, the “% of control specific binding” value (D1) was 58.6% and the “% of control specific binding” value (H1) was 58.9%. For the same compound, the “% of control specific binding” value (V1a) was 99.8%, the “% of control specific binding” value (H2) was 90.3% and the “% of control specific binding” value (5-HT3) was 76.2%.

For CCC(CO)NCCOc1c(C)cccc1Cl (stereo not drawn) [KM-408, R,S-2-((2-(2-chloro-6-methylphenoxy)ethyl)amino)butan-1-ol hydrochloride], the inhibition at 10 µM (Sigma 1; read-out: % inhibition of specific control binding) was 95%, the remaining activity at 10 µM (Sigma 1; read-out: % of control specific binding) was 95% and the viability at 24 h, 250 µM (MTT assay) was 81%. For the same compound, the solubility ([1]; 20% dioxane) was “dissolved fully”, the solubility ([1]; 20% ethanol) was “dissolved fully” and the solubility ([1]; DMSO above 30%) was “full solubility has not been achieved”. For the same compound, the Rate constant k [2] was 0.83·10^–3 h^−1, the t0.1 [2] was 127.0 h and the half-life at 5 mg/mL ([2]; borate buffer with 20% v/v 1,4-dioxane, pH 9.9, read-out: Half-life t0.5 (converted)) was 34.8 days.
